PubChem BioAssay (NCI)
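Test compounds were applied to cells in 96-well plates for 48 hours at 5 doses. GI50 is the concentration that inhibits growth by half. Definition used: TGI = concentration required for complete inhibition of growth.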

Tests used:
Test in all cases: NCI-60 cell line screen, 48 h
[1] = tested on: IGROV1 ovarian
[2] = tested on: HT29 colon
[3] = tested on: SNB-75 CNS
[4] = tested on: ACHN renal
[5] = tested on: HCT-15 colon
[6] = tested on: 786-0 renal
[7] = tested on: RXF 393 renal
[8] = tested on: SF-539 CNS
[9] = tested on: OVCAR-4 ovarian
[10] = tested on: BT-549 breast
[11] = tested on: SK-MEL-28 melanoma
[12] = tested on: OVCAR-5 ovarian
[13] = tested on: MDA-MB-435
[14] = tested on: SK-MEL-5 melanoma
[15] = tested on: LOX IMVI melanoma
[16] = tested on: OVCAR-3 ovarian
[17] = tested on: SF-268 CNS
[18] = tested on: HCT-116 colon
[19] = tested on: KM12 colon
[20] = tested on: OVCAR-8 ovarian
[21] = tested on: T-47D breast
[22] = tested on: RPMI-8226 leukemia
[23] = tested on: U251 CNS
[24] = tested on: UACC-62 melanoma
[25] = tested on: CAKI-1 renal
[26] = tested on: SF-295 CNS
[27] = tested on: UO-31 renal
[28] = tested on: A498 renal
[29] = tested on: SN12C renal
[30] = tested on: HS 578T breast
[31] = tested on: MDA-MB-231 breast
[32] = tested on: NCI-H226 lung
[33] = tested on: DU-145 prostate
[34] = tested on: UACC-257 melanoma
[35] = tested on: HL-60(TB) leukemia
[36] = tested on: HCC-2998 colon
[37] = tested on: SNB-19 CNS
[38] = tested on: NCI-H460 lung
[39] = tested on: SR leukemia
[40] = tested on: HOP-62 NSCLC
[41] = tested on: SK-OV-3 ovarian
[42] = tested on: SW-620 colon
[43] = tested on: MOLT-4 leukemia
[44] = tested on: NCI/ADR-RES ovarian
[45] = tested on: M14 melanoma
[46] = tested on: K-562 leukemia
[47] = tested on: MCF7 breast
[48] = tested on: SK-MEL-2 melanoma
[49] = tested on: NCI-H23 lung
[50] = tested on: TK-10 renal
[51] = tested on: CCRF-CEM leukemia
[52] = tested on: A549 NSCLC
[53] = tested on: HOP-92 NSCLC
[54] = tested on: PC-3 prostate
[55] = tested on: MALME-3M melanoma
[56] = tested on: NCI-H522 lung
[57] = tested on: COLO 205 colon

## Fc1ccc(-c2c(-c3ccncc3)n(CCN3CCOCC3)c3cccnc23)cc1
[1]
  GI50: > 25 µM
  TGI: > 25 µM
[2]
  GI50: > 25 µM
  TGI: > 25 µM
[3]
  GI50: > 25 µM
  TGI: > 25 µM
[4]
  GI50: > 25 µM
  TGI: > 25 µM
[5]
  GI50: > 25 µM
  TGI: > 25 µM
[6]
  GI50: > 25 µM
  TGI: > 25 µM
[7]
  GI50: > 25 µM
  TGI: > 25 µM
[8]
  GI50: > 25 µM
  TGI: > 25 µM
[9]
  GI50: > 25 µM
  TGI: > 25 µM
[10]
  GI50: > 25 µM
  TGI: > 25 µM
[11]
  GI50: > 25 µM
  TGI: > 25 µM
[12]
  GI50: > 25 µM
  TGI: > 25 µM
[13]
  GI50: > 25 µM
  TGI: > 25 µM
[14]
  GI50: > 25 µM
  TGI: > 25 µM
[15]
  GI50: > 25 µM
  TGI: > 25 µM
[16]
  GI50: > 25 µM
  TGI: > 25 µM
[17]
  GI50: > 25 µM
  TGI: > 25 µM
[18]
  GI50: > 25 µM
  TGI: > 25 µM
[19]
  GI50: > 25 µM
  TGI: > 25 µM
[20]
  GI50: > 25 µM
  TGI: > 25 µM
[21]
  GI50: > 25 µM
  TGI: > 25 µM
[22]
  GI50: > 25 µM
  TGI: > 25 µM
[23]
  GI50: > 25 µM
  TGI: > 25 µM
[24]
  GI50: > 25 µM
  TGI: > 25 µM
[25]
  GI50: > 25 µM
  TGI: > 25 µM
[26]
  GI50: > 25 µM
  TGI: > 25 µM
[27]
  GI50: > 5.79 µM
  TGI: > 25 µM
[28]
  GI50: > 25 µM
  TGI: > 25 µM
[29]
  GI50: > 25 µM
  TGI: > 25 µM
[30]
  GI50: > 25 µM
  TGI: > 25 µM
[31]
  GI50: > 25 µM
  TGI: > 25 µM
[32]
  GI50: > 25 µM
  TGI: > 25 µM
[33]
  GI50: > 25 µM
  TGI: > 25 µM
[34]
  GI50: > 25 µM
  TGI: > 25 µM
[35]
  GI50: > 25 µM
  TGI: > 25 µM
[36]
  GI50: > 25 µM
  TGI: > 25 µM
[37]
  GI50: > 25 µM
  TGI: > 25 µM
[38]
  GI50: > 25 µM
  TGI: > 25 µM
[39]
  GI50: > 25 µM
  TGI: > 25 µM
[40]
  GI50: > 25 µM
  TGI: > 25 µM
[41]
  GI50: > 25 µM
  TGI: > 25 µM
[42]
  GI50: > 25 µM
  TGI: > 25 µM
[43]
  GI50: > 25 µM
  TGI: > 25 µM
[44]
  GI50: > 25 µM
  TGI: > 25 µM
[45]
  GI50: > 25 µM
  TGI: > 25 µM
[46]
  GI50: > 25 µM
  TGI: > 25 µM
[47]
  GI50: > 25 µM
  TGI: > 25 µM
[48]
  GI50: > 25 µM
  TGI: > 25 µM
[49]
  GI50: > 25 µM
  TGI: > 25 µM
[50]
  GI50: > 25 µM
  TGI: > 25 µM
[51]
  GI50: > 25 µM
  TGI: > 25 µM
[52]
  GI50: > 25 µM
  TGI: > 25 µM
[53]
  GI50: 2.2 µM
  TGI: > 25 µM
[54]
  GI50: > 25 µM
  TGI: > 25 µM
[55]
  GI50: > 25 µM
  TGI: > 25 µM
[56]
  GI50: > 25 µM
  TGI: > 25 µM
[57]
  GI50: > 25 µM
  TGI: > 25 µM

## CC(=O)OCCCCCn1cnc(C(N)=O)c1N
[3]
  GI50: 87.1 µM
